Source: patent publication US9463216B2 (priority 2012, dated 2016)

Target: PA (Bacillus anthracis, UniProt P13423)
Type: binding, B. anthracis

Chain of PA (P13423 30-764 limits assumed): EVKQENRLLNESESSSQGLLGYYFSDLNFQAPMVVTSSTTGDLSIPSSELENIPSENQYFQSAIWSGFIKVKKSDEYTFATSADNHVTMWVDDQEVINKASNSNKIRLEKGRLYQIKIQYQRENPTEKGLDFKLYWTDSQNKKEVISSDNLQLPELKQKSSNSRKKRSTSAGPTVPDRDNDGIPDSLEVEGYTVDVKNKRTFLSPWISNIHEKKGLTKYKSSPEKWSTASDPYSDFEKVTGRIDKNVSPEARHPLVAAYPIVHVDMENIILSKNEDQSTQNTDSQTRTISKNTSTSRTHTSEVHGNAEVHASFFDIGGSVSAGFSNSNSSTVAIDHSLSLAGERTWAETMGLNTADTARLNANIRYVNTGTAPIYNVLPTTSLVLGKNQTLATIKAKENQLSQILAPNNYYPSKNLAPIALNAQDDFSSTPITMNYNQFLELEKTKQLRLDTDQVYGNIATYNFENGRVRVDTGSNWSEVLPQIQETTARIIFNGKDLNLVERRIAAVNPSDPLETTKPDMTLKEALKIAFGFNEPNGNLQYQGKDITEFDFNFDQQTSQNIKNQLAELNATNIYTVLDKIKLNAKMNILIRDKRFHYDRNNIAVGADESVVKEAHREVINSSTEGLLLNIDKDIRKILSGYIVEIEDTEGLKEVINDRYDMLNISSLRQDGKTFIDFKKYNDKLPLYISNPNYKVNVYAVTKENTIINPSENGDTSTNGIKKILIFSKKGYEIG

For poly-γ-D-glutamic acid [Compound 3], the “form complexes with PA” value was “can form complexes with PA”.
